In patent publication US20220259593A1, “CONTROL OF MAMMALIAN GENE DOSAGE USING CRISPR” (The Regents of the University of California, priority 2019, published 2022):

What was measured:
K562 CRISPRi cells [1] = assay: Perturb-seq pooled growth measurement (sgRNA counts, growth phenotype γ, relative activity); type: cell-based, human; details: γ relative to perfectly matched sgRNA (_00) of the same gene, day 10
K562 CRISPRi cells [2] = assay: as above; type: cell-based, human; details: for gamma_day5 / gamma_day10: pooled growth phenotype γ of the Perturb-seq sgRNA; for gamma_day5: day 5, K562 CRISPRi cells; for gamma_day10: day 10, K562 CRISPRi cells; for relative_activity_day5: γ relative to perfectly matched sgRNA (_00) of the same gene, day 5; for Perturb-seq pooled growth sgRNA counts, d5 / Perturb-seq pooled growth sgRNA counts, d10 / Perturb-seq pooled growth sgRNA counts, T0: sequencing read counts; for Perturb-seq pooled growth sgRNA counts, d5: 5 days of growth (day seven after transduction); for Perturb-seq pooled growth sgRNA counts, d10: 10 days of growth (day twelve after transduction); for Perturb-seq pooled growth sgRNA counts, T0: T0 = day two after transduction
Summary of the method: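 CRISPRi K562 cells from the Perturb-seq transduced pool; 500,000-cell samples taken days two, seven and twelve post-transduction. sgRNA amplicons from genomic DNA sequenced; growth phenotypes from normalized sgRNA abundances at days seven and twelve versus day two. Relative activity assigned from day seven (five days' growth).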

Substance	relative_activity_day10 (K562 CRISPRi cells [1])	gamma_day5 (K562 CRISPRi cells [2])	gamma_day10 (K562 CRISPRi cells [2])	relative_activity_day5 (K562 CRISPRi cells [2])	Perturb-seq pooled growth sgRNA counts, d5 (K562 CRISPRi cells [2])	Perturb-seq pooled growth sgRNA counts, d10 (K562 CRISPRi cells [2])	Perturb-seq pooled growth sgRNA counts, T0 (K562 CRISPRi cells [2])
ATP5E_ −_57607036.23-P1P2_16 (guide GGTGTCCAGGGGCGCTCTGT; listed as DNA, chemistry not fully specified)	0.7368	−0.1616	−0.1656	0.9135			
EIF2S1_ −_67827080.23-P1P2_07 (guide GAGCGAAGCGCTCGCTGAGG; listed as DNA, chemistry not fully specified)	0.07767	−0.08307	−0.04004	0.09182			
RAN_ + _131356438.23-P1P2_02 (guide GGCGGCCGCTGCGCTTAGGG; listed as DNA, chemistry not fully specified)	1.264	−0.2316	−0.2041	1.173			
ATP5E_ −_57607036.23-P1P2_14 (guide GGTGTCCAGGGGCACTGTGT; listed as DNA, chemistry not fully specified)	0.156	−0.01233	−0.03506	0.0697			
ATP5E_ −_57607036.23-P1P2_00 (guide GGTGTCCAGGGGCACTCTGT; listed as DNA, chemistry not fully specified)	1	−0.1769	−0.2247	1			
DBR1_ + _137893744.23-P1P2_01 (guide GATTGCAGGAGTCTACACCC; listed as DNA, chemistry not fully specified)	1.119	−0.5119	−0.5474	1.124			
SEC61A1_ −_127771295.23-P1_01 (guide GGCACTGTCGTGTCTCTCGG; listed as DNA, chemistry not fully specified)	0.5184	−0.4191	−0.2918	0.4556			
DUT_ + _48624411.23-P1P2_10 (guide GCGAGCGAGGAGACCAACGG; listed as DNA, chemistry not fully specified)	0.4949	−0.3864	−0.3196	0.4873			
DUT_+_48624411.23-P1P2_10: sgRNA targeting DUT, GCGAGCGAGGAGACCAACGG, SEQ ID NO: 114 (listed as DNA, chemistry not fully specified)					5403	4466	6538
CAD_+_27440280.23-P1P2_03: sgRNA targeting CAD, GGCTGGTGAGAAGCCGGGCG, SEQ ID NO: 102 (listed as DNA, chemistry not fully specified)					2087	907	7290
POLR1D_+_28196016.23-P1_00: sgRNA targeting POLR1D, GGGAAGCAAGGACCGACCGA, SEQ ID NO: 11 (listed as DNA, chemistry not fully specified)					3429	1496	11671
CDC23_−_137548987.23-P1P2_08: sgRNA targeting CDC23, GACAGCCATCGGGACCATGG, SEQ ID NO: 99 (listed as DNA, chemistry not fully specified)					1531	1710	8986
POLR1D_+_28196016.23-P1_01: sgRNA targeting POLR1D, GGGAAGCCAGGACCGACCGA, SEQ ID NO: 76 (listed as DNA, chemistry not fully specified)					4460	2528	12679
ALDOA_+_30077139.23-P1P2_13: sgRNA targeting ALDOA, GGTCACCAGGACCCCTTTTG, SEQ ID NO: 160 (listed as DNA, chemistry not fully specified)					16944	26890	6699
BCR_+_23523092.23-P1P2_05: sgRNA targeting BCR, GCGCGCGGCGCCCGTCTCAG, SEQ ID NO: 128 (listed as DNA, chemistry not fully specified)					12165	15537	13439
